# Legend:
# Molt-4 = experiment: Growth of spontaneously proliferating cell line Molt-4; assay type: cell-based; settings: p56^lck negative human T lymphoma cell line
# Description: Molt-4 is a human T lymphoma cell line, p56^lck negative, and Jurkat is a human T cell line, p56^lck positive, that will grow spontaneously in the absence of exogenous stimuli.
# [1] = Health-related quality of life and symptom assessment in MS patients (MS-modified MOS-HIV, PGWB, MS Symptom Checklist); assay type: in vivo, human
# Description: To evaluate the impact of drug-related change on overall health and symptom burden, MS patients were followed routinely with both recognized and newly developed health-related quality of life instruments: an MS-modified version of the 30-item Medical Outcomes Study-HIV Survey (MOS-HIV) originally developed by Dr. Albert Wu, the 22-item Psychological General Well-Being Schedule (PGWB) developed by Dr. Harold Dupuy, and the MS Symptom Checklist developed for this study. These instruments, of which the first two have previously been validated and shown to be responsive to change in other disease states, allow quantitation of self-reported symptom variation (see Brook et al., Medical Care 17(7 Suppl.) 1-54 (1979), Fazio "A Concurrent Validation Survey of the NCHS General Well-Being Schedule", US Dept of Health, Education and Welfare, National Center for Health Statistics, Hyattsville, Maryland, USA 1977, McDowell and Newell "Measuring Health: A Guide to Rating Scales and Questionnaires", Oxford University Press 1987, Stewart et al., Medical Care 26 724-35 (1988), JAMA 262 907-13 (1989), and "Measuring Functioning and Well-Being of Patients with Chronic Conditions: The Medical Outcomes Study Approach", Duke University Press 1992, Wachtel et al., Ann. Int. Med. 116 129-137 (1992), Ware et al., "Conceptualization and Measurement of Health for Adults in the Health Insurance Survey, Vol III: Mental Health", Rand Corporation 1979, and Wu et al., Medical Care 29(8) 786-98 (1991)).
# Given the small number of patients involved in this report, some of whom received Peptide T in an on-off-on design, it would not be expected that statistical significance might be obtained. To facilitate establishment of any trends, three patients who stopped taking Peptide T and then restarted the drug some weeks later after a new baseline period appear twice in the following analysis. In this manner, 8 baseline and repeated measures (at weeks 0, 4, 8, and 12) were defined and analysed using two-tailed paired t-tests: see Table XIV.
structure (smiles),measurement,setting,value
"C[C@@H](N)C(=O)N[C@@H](CO)C(=O)N[C@H](C(=O)N[C@H](C(=O)N[C@H](C(=O)N[C@@H](CC(N)=O)C(=O)N[C@@H](Cc1ccc(O)cc1)C(=O)N[C@H](C(N)=O)[C@@H](C)O)[C@@H](C)O)[C@@H](C)O)[C@@H](C)O [Peptide T, D-Ala-Ser-Thr-Thr-Thr-Asn-Tyr-Thr-NH2]",growth of Molt-4 cell line,Molt-4,did not significantly affect
same,malaise,[1]; 4 and 8 weeks,statistacally significant
same,forgetfulness and slowness in thinking,"[1]; human, in vivo",trend towards improvement
same,Mean improvements in measures of energy,"[1]; week 12, all three instruments",exceeded 2 standard deviations
same,"physical discomfort, mental health and health distress (MS-modified MOS-HIV)","[1]; weeks 4, 8 and 12",either a trend or statistically significant improvement
same,"energy, general quality of life, well-being and unweighted summary score (MS-modified MOS-HIV)","[1]; weeks 4, 8 and 12 vs baseline, two-tailed paired t-tests",Improvement was statistically significant

# — patent publication EP0960886B1, “Peptide T and related peptides in the treatment of inflammation, including multiple sclerosis” (priority 1992, dated 1993)
